# From patent publication US7009045B2 (priority 2000, dated 2006)
# Assays:
# Assay type in all cases: cell-based
# [1] = tested on: Pichia guilliermondii wild type and regulatory mutants (rib81); assay: Sensitivity after electroporation to K2Cr2O7, medium with 0.5% glycerol (Table 21); set-up: key: +++: strong growth; ++: weak growth; —: absence of growth
# From the text: The possibility for positive selection of P. guilliermondii rib81 transformants unable to overproduce riboflavin in minimal medium was studied. For this, the toxicity of K2Cr2O7 (Cr^+6) was compared for the P. guilliermondii wild-type strain ATCC 9058 and regulatory mutants P. guilliermondii rib81 9-20 and 20-2. The cells were pregrown in liquid YPD to OD 1.5–2.0 (540 nm) and electroporated according to the protocol described (Example 34). Electroporated cells were washed three times with 10×volume of 0.6 M KCl and then the volume was adjusted to 1 ml. Then the cells were plated at 0.2 ml suspension per plate which contained 0.5% glycerol, 0.6 M KCl and K2Cr2O7 (50–1000 μM).
# The visual selection of the non-overproducing riboflavin transformants is rather arbitrary and uncertain. Therefore it was decided to develop the method for positive selection of the transformants using tentative differences in sensitivity to K2Cr2O7 of wild-type P. guilliermondii and the regulatory mutants rib81 9-20 and 20-2. After 6 days of cultivation in the medium with 0.5% glycerol, it was shown that K2Cr2O7 at 150–180 μM inhibited growth of regulatory mutant 9-20 more strongly than that of the wild strain (Table 21).
# [2] = tested on: Candida famata regulatory mutants able to overproduce riboflavin; assay: Sensitivity to K2Cr2O7, solid Burkholder medium with 0.5% glycerol (Table 14); set-up: key: +++: strong growth; ++: weak growth; —: absence of growth
# Method: The sensitivity of the regulatory mutants of the yeast C. famata which overproduce riboflavin in iron rich medium probably due to defects in genes regulating repression (repression mutants), to different ions of heavy metals was studied. For this, the analyzed strains were streaked on the YPD plates and then were replica-plated on Burkholder synthetic medium containing leucine (40 μg/ml). The C.famata mutants L20105-40-1-11, L20105-40-1-17, L20105-3-2-1, L20105-3-2-8 and L20105-3-2-12 (all contained leu2 marker) accumulated 80–100 μg riboflavin/ml. The mutants #75, 4-48, 2-5 produced much higher amounts of riboflavin (200–250 μg/ml) but were prototrophs for leucine synthesis. Strain #75 was characterized by retarded growth comparing with other mutants. The strains VKM Y-9 (wild type) and L20105 (leu2) were used as the control strains.
# [3] = tested on: Candida famata regulatory mutants unable to overproduce riboflavin; assay: Sensitivity to K2Cr2O7, Burkholder medium (Table 10)
# From the text: In the next experiments, the influence of cobalt and chromium ions on the growth and riboflavin synthesis of regulatory mutants having defects in derepression (derepression mutants) was studied.
# [4] = tested on: Pichia guilliermondii wild type and regulatory mutants (rib81); assay: Sensitivity after electroporation to K2Cr2O7, Burkholder medium with 0.3 M sucrose (Table 22); set-up: key: +++: strong growth; ++: weak growth; +: very weak growth; —: absence of growth; conditions: K2Cr2O7 400 μM
smiles,measurement,setting,value
[K+].[K+].[O]=[Cr](=[O])([O-])[O][Cr](=[O])(=[O])[O-] [K2Cr2O7],growth,"[1]; #9-20 (leu2), K2Cr2O7 75 μM",+++
same,growth,"[1]; #9-20 (leu2), K2Cr2O7 100 μM",++
same,growth,"[1]; #9-20 (leu2), K2Cr2O7 150 μM",—
same,growth,"[1]; #9-20 (leu2), K2Cr2O7 185 μM",—
same,growth,"[1]; #9-20 (leu2), K2Cr2O7 240 μM",—
same,growth,"[1]; ATCC9058, K2Cr2O7 75 μM",+++
same,growth,"[1]; ATCC9058, K2Cr2O7 100 μM",+++
same,growth,"[1]; ATCC9058, K2Cr2O7 125 μM",+++
same,growth,"[1]; ATCC9058, K2Cr2O7 150 μM",+++
same,growth,"[1]; ATCC9058, K2Cr2O7 185 μM",++
same,growth,"[1]; ATCC9058, K2Cr2O7 240 μM",—
same,growth,"[2]; #2-5, K2Cr2O7 25 μM",+++
same,growth,"[2]; #2-5, K2Cr2O7 30 μM",+++
same,growth,"[2]; #2-5, K2Cr2O7 35 μM",+++
same,growth,"[2]; #2-5, K2Cr2O7 40 μM",+++
same,growth,"[2]; #2-5, K2Cr2O7 45 μM",+++
same,growth,"[2]; #2-5, K2Cr2O7 55 μM",++
same,growth,"[2]; #2-5, K2Cr2O7 85 μM",—
same,growth,"[2]; #2-5, K2Cr2O7 100 μM",—
same,growth,"[2]; #2-5, K2Cr2O7 125 μM",—
same,growth,"[2]; #2-5, K2Cr2O7 150 μM",—
same,growth,"[2]; #4-48, K2Cr2O7 25 μM",+++
same,growth,"[2]; #4-48, K2Cr2O7 30 μM",+++
same,growth,"[2]; #4-48, K2Cr2O7 35 μM",+++
same,growth,"[2]; #4-48, K2Cr2O7 40 μM",+++
same,growth,"[2]; #4-48, K2Cr2O7 45 μM",+++
same,growth,"[2]; #4-48, K2Cr2O7 55 μM",++
same,growth,"[2]; #4-48, K2Cr2O7 65 μM",—
same,growth,"[2]; #4-48, K2Cr2O7 70 μM",—
same,growth,"[2]; #4-48, K2Cr2O7 75 μM",—
same,growth,"[2]; #4-48, K2Cr2O7 85 μM",—
same,growth,"[2]; #4-48, K2Cr2O7 100 μM",—
same,growth,"[2]; #4-48, K2Cr2O7 125 μM",—
same,growth,"[2]; #4-48, K2Cr2O7 150 μM",—
same,growth,"[2]; #75, K2Cr2O7 25 μM",+++
same,growth,"[2]; #75, K2Cr2O7 30 μM",+++
same,growth,"[2]; #75, K2Cr2O7 35 μM",+++
same,growth,"[2]; #75, K2Cr2O7 45 μM",++
same,growth,"[2]; #75, K2Cr2O7 55 μM",++
same,growth,"[2]; #75, K2Cr2O7 65 μM",—
same,growth,"[2]; #75, K2Cr2O7 70 μM",—
same,growth,"[2]; #75, K2Cr2O7 75 μM",—
same,growth,"[2]; #75, K2Cr2O7 85 μM",—
same,growth,"[2]; #75, K2Cr2O7 100 μM",—
same,growth,"[2]; #75, K2Cr2O7 125 μM",—
same,growth,"[2]; #75, K2Cr2O7 150 μM",—
same,growth,"[2]; L20105 (leu2), K2Cr2O7 25 μM",+++
same,growth,"[2]; L20105 (leu2), K2Cr2O7 30 μM",+++
same,growth,"[2]; L20105 (leu2), K2Cr2O7 35 μM",+++
same,growth,"[2]; L20105 (leu2), K2Cr2O7 40 μM",+++
same,growth,"[2]; L20105 (leu2), K2Cr2O7 45 μM",+++
same,growth,"[2]; L20105 (leu2), K2Cr2O7 50 μM",+++
same,growth,"[2]; L20105 (leu2), K2Cr2O7 55 μM",+++
same,growth,"[2]; L20105 (leu2), K2Cr2O7 60 μM",+++
same,growth,"[2]; L20105 (leu2), K2Cr2O7 65 μM",++
same,growth,"[2]; L20105 (leu2), K2Cr2O7 70 μM",++
same,growth,"[2]; L20105 (leu2), K2Cr2O7 75 μM",++
same,growth,"[2]; L20105 (leu2), K2Cr2O7 85 μM",++
same,growth,"[2]; L20105 (leu2), K2Cr2O7 100 μM",++
same,growth,"[2]; L20105 (leu2), K2Cr2O7 125 μM",—
same,growth,"[2]; L20105 (leu2), K2Cr2O7 150 μM",—
same,growth,"[2]; L20105-3-2-4, K2Cr2O7 25 μM",+++
same,growth,"[2]; L20105-3-2-4, K2Cr2O7 45 μM",—
same,growth,"[2]; L20105-3-2-4, K2Cr2O7 50 μM",—
same,growth,"[2]; L20105-3-2-4, K2Cr2O7 55 μM",—
same,growth,"[2]; L20105-3-2-4, K2Cr2O7 60 μM",—
same,growth,"[2]; L20105-3-2-4, K2Cr2O7 65 μM",—
same,growth,"[2]; L20105-3-2-4, K2Cr2O7 70 μM",—
same,growth,"[2]; L20105-3-2-4, K2Cr2O7 85 μM",—
same,growth,"[2]; L20105-3-2-4, K2Cr2O7 100 μM",—
same,growth,"[2]; L20105-3-2-4, K2Cr2O7 125 μM",—
same,growth,"[2]; L20105-3-2-4, K2Cr2O7 150 μM",—
same,growth,"[2]; L20105-3-2-8, K2Cr2O7 25 μM",+++
same,growth,"[2]; L20105-3-2-8, K2Cr2O7 45 μM",—
same,growth,"[2]; L20105-3-2-8, K2Cr2O7 50 μM",—
same,growth,"[2]; L20105-3-2-8, K2Cr2O7 55 μM",—
same,growth,"[2]; L20105-3-2-8, K2Cr2O7 60 μM",—
same,growth,"[2]; L20105-3-2-8, K2Cr2O7 65 μM",—
same,growth,"[2]; L20105-3-2-8, K2Cr2O7 70 μM",—
same,growth,"[2]; L20105-3-2-8, K2Cr2O7 75 μM",—
same,growth,"[2]; L20105-3-2-8, K2Cr2O7 85 μM",—
same,growth,"[2]; L20105-3-2-8, K2Cr2O7 100 μM",—
same,growth,"[2]; L20105-3-2-8, K2Cr2O7 125 μM",—
same,growth,"[2]; L20105-3-2-8, K2Cr2O7 150 μM",—
same,growth,"[2]; L20105-3-2-12, K2Cr2O7 25 μM",+++
same,growth,"[2]; L20105-3-2-12, K2Cr2O7 45 μM",—
same,growth,"[2]; L20105-3-2-12, K2Cr2O7 50 μM",—
same,growth,"[2]; L20105-3-2-12, K2Cr2O7 55 μM",—
same,growth,"[2]; L20105-3-2-12, K2Cr2O7 60 μM",—
same,growth,"[2]; L20105-3-2-12, K2Cr2O7 65 μM",—
same,growth,"[2]; L20105-3-2-12, K2Cr2O7 70 μM",—
same,growth,"[2]; L20105-3-2-12, K2Cr2O7 75 μM",—
same,growth,"[2]; L20105-3-2-12, K2Cr2O7 85 μM",—
same,growth,"[2]; L20105-3-2-12, K2Cr2O7 100 μM",—
same,growth,"[2]; L20105-3-2-12, K2Cr2O7 125 μM",—
same,growth,"[2]; L20105-3-2-12, K2Cr2O7 150 μM",—
same,growth,"[2]; VKM Y-9, K2Cr2O7 65 μM",+++
same,growth,"[2]; VKM Y-9, K2Cr2O7 70 μM",+++
same,growth,"[2]; VKM Y-9, K2Cr2O7 75 μM",+++
same,growth,"[2]; VKM Y-9, K2Cr2O7 85 μM",+++
same,growth,"[2]; VKM Y-9, K2Cr2O7 100 μM",+++
same,growth,"[2]; VKM Y-9, K2Cr2O7 125 μM",++
same,growth of wild-type strains VKM Y-9 and L20105 (leu2),[3]; Cr^+6 0.15 mM,grow at this concentration quite satisfactory
same,concentration toxic for the derepression mutants,[3]; Cr^+6 ions as K2Cr2O7,0.15 mM
same,growth,[4]; #9-20 (leu2),+
same,growth,[4]; ATCC9058,+
